Experiments:
[1] = tested on: succinoxidase system of beef heart mitochondria; assay: CoQ activity: restoring succinoxidase activity of pentane-extracted beef heart mitochondria (manometric); assay type: biochemical; parameters: key to CoQ10 Act. Index: activity index relative to CoQ10 standard; conditions: for Activation at 400 nMoles %: 400 nmoles of analog, relative to the response to 400 nmoles CoQ10; for Maximum Activation: 400 nm of analog per flask, percent of the response to CoQ4; for CoQ10 Act. Index: calculated from relative effectiveness, activity in terms of that of CoQ10; for Estimated nMoles Required for 50% Activation: level required to reinstate approximately 50% of maximum succinoxidase activity, 0.65-0.85 mg PEBHM; for Relative Effectiveness: molar amounts of analog and CoQ4 required to restore the same level of succinoxidase to PEBHM, relative to CoQ4; for effectiveness / utilization in the succinoxidase mitochondrial system: interpretation of Table II
Experimental: The CoQ activity of each analog was assessed by examining the ability of the analog to stimulate the succinoxidase activity of beef-heart mitochondria (BHM) from which the naturally occurring CoQ had been removed by pentane extraction. (Table I) Beef heart mitochondria were prepared by the method of Smith (Methods Enzymol., 10, 81 (1967). The pentane extraction was conducted as described by Szarkowska (Arch. Biochem. Biophys., 113, 519 (1966); PEBHM was frozen and used within 10 days of preparation, since pentane extraction decreases the stability of BHM. Succinoxidase activity was determined manometercally, using a Gilson differential respirometer (Iwamoto, Y., Hansen, I. L., Porter, T. H., and Folkers, K., Biochem. Biophys. Res. Comm., 58, 633 (1974), and is reported as […] of oxygen per minute per milligram of protein. A commercial soybean phospholipid preparation (Asolectin), dispersed by sonication (Fleischer, S. and Fleischer, B., Methods Enzymol., 10, 421 (1967), was used to provide phospholipid micelles, and test substances were added as solutions in ethanol. Within Table I are listed the CoQ activities of the analogs and selected reference compounds. The CoQ10 Activity Index is a measure of the effectiveness of the analogs, relative to the standard, in stimulating a submaximal response of succinoxidase activity. Specific activity of the succinoxidase system in response to stimulation by exogenous CoQ10 is given in footnote a of the Table. The quantity of analog to be added was chosen to provide a level of succinoxidase activity corresponding to the nearly linear portion of the activity: dose curve, in which succinoxidase activity stimulated is approximately proportional to the level of analog used. The second column lists the nanomolar quantity of analog required to provide a stimulation of about half of the maximum response. The relative response of the succinoxidase system to 400 nmol of each analog is listed in the third column of the Table. This level of analog is sufficient to insure significant excess over the stoichiometric amount, and maximum response to CoQ4 is obtained at one-tenth to one-twentieth of this dose level. The response to 400 nmol of CoQ10 is lower than is the response to other components listed. The very long side-chain of CoQ10, the natural coenzyme, may hinder the transport of exogenous CoQ10 to the active site.

Solubility in water = assay type: physicochemical; conditions: in the site I assay system
complex III = complex III (Bos taurus, UniProt P00157+P13272); assay: Reduction of cytochrome c by reduced CoQ and analogs catalyzed by complex III; assay type: biochemical; conditions: for response of complex III system to the reduced analog as substrate: after reduction and extraction
Experimental: Reduction of cytochrome c was measured at 550-540 nm. The reaction mixtur
contained in 1.0 ml: […] KP1, pH 7.5; 0.05 mM EDTA; 8 μM
cytochrome c1; 10 μM reduced CoQ or analog and 2 μg complex
III. When indicated, antimycin A was added to the assay medium at 1
μg/ml. An extinction coefficient of 19 mM^-^1 was used for […]

[2] = tested on: oxidative phosphorylation at site I (ETPH particles); assay: Assay of CoQ and analogs for oxidative phosphorylation at site I with ETPH particles; assay type: biochemical; parameters: Δ NADH / Δ G6P: unit not given here; conditions: for biochemical effectiveness in the site I assay system: compared with CoQ1
Experimental: Assays were performed with 200 μg of ETPH particles as described by
Schatz and Racker (J. Biol. Chem., 241, 1429 (1966)). The concentration o
the CoQ compounds was 0.12 mM. Rotenone was added at 2 μM

Chemical stability = assay type: physicochemical; conditions: compared with CoQ1 and CoQ2
periodontal disease = conditions: Matsummura et al. 1973; cited from earlier work
[3] = tested on: nutritionally deficient children who were anemic; conditions: Majaj and Folkers 1968; cited from earlier work
[4] = tested on: nutritionally dystrophic rabbit; conditions: Farley et al. 1968; intravenous administration; cited from earlier work
[5] = literature / general knowledge; cited from earlier work
[6] = human; cited from earlier work
[7] = CoQ or analog 0.12 nM (footnote 0.12 mM)

Row | SMILES | Activation at 400 nMoles % [1] [%] | Maximum Activation [1] [%] | CoQ10 Act. Index [1] | Estimated nMoles Required for 50% Activation [1] [nmol] | Relative Effectiveness [1] [%] | solubility in water (Solubility in water) | response of complex III system to the reduced analog as substrate (complex III) | biochemical effectiveness in the site I assay system [2] | effectiveness / utilization in the succinoxidase mitochondrial system [1] | hematological activity [3] | therapeutic activity, saving the life of the dying dystrophic rabbit [4] | further results
1 | COC1=C(OC)C(=O)C(C/C=C(\C)CC/C=C(\C)CCC=C(C)C)=C(C)C1=O [CoQ3, coenzyme Q3] | – | – | – | – | – | – | – | – | – | – | did not save the life of the dying dystrophic rabbit | chemical stability of isoprenoid quinones [5]: relative chemical instability
2 | COC1=C(OC)C(=O)C(C/C=C(\C)CC/C=C(\C)CC/C=C(\C)CC/C=C(\C)CC/C=C(\C)CC/C=C(\C)CC/C=C(\C)CC/C=C(\C)CC/C=C(\C)CCC=C(C)C)=C(C)C1=O [CoQ10, coenzyme Q10, reference compound] | 100 | 78 | 1.0 | 41.7 | 4.8 | too insoluble | – | – | poorly utilized | showed hematological activity | failed to elicit therapeutic activity | Specific Activity of the enzyme system ([1]; 10 nmoles CoQ10/flask): 0.160 μatm O2 /mg protein min; Specific Activity of the enzyme system ([1]; 20 nmoles CoQ10/flask): 0.248 μatm O2 /mg protein min; Specific Activity of the enzyme system ([1]; 30 nmoles CoQ10/flask): 0.298 μatm O2 /mg protein min; Specific Activity of the enzyme system ([1]; 40 nmoles CoQ10/flask): 0.344 μatm O2 /mg protein min; Specific Activity of the enzyme system ([1]; 100 nmoles CoQ10/flask): 0.488 μatm O2 /mg protein min; Activation at 3.46 nMoles ([1]; 3.46 (nMoles) CoQ10): no activation; oral absorption [6]: inefficient
3 | COC1=C(OC)C(=O)C(C/C=C(\C)CC/C=C(\C)CC/C=C(\C)CC/C=C(\C)CC/C=C(\C)CCC=C(C)C)=C(C)C1=O [CoQ6, reference compound] | – | – | – | – | – | somewhat more soluble | – | not adequate | – | – | – | –

Now from value to compound, other results behind:

Row | Activation at 400 nMoles % [1] [%] | Maximum Activation [1] [%] | CoQ10 Act. Index [1] | Estimated nMoles Required for 50% Activation [1] [nmol] | Relative Effectiveness [1] [%] | solubility in water (Solubility in water) | response of complex III system to the reduced analog as substrate (complex III) | SMILES | biochemical effectiveness in the site I assay system [2] | effectiveness / utilization in the succinoxidase mitochondrial system [1] | hematological activity [3] | therapeutic activity, saving the life of the dying dystrophic rabbit [4] | further results
4 | 121 | 94 | 4.4 | 9.5 | 21 | lower solubility in water | virtually unresponsive | CCCCCCCCCCCCCCCC1=C(C)C(=O)C(OC)=C(OC)C1=O [Pentadecyl, 2,3-Dimethoxy-5-methyl-6-pentadecyl-1,4-benzoquinone] | not suitable or as effective | – | – | – | inhibition of complex III system (complex III): no inhibition
5 | 123 | 96 | 11.7 | 3.6 | 56 | – | excellent substrates | CCCCCCCCCCC1=C(C)C(=O)C(OC)=C(OC)C1=O [Decyl, 2,3-Dimethoxy-5-methyl-6-decyl-1,4-benzoquinone] | as biochemically effective as CoQ1 | effective | – | – | chemical stability (Chemical stability; listed as 6-n-decyl): superior to CoQ1 and CoQ2 in chemical stability; chemical stability (Chemical stability; listed as DB): apparent greater stability; nMoles Cytochrome c Reduced/min (complex III; 10 μM reduced CoQ or analog, 2 μg complex III, 8 μM cytochrome c): 29.0 nmol/min; Non-enzymatic Rate of Cytochrome c Reduction (complex III; 10 μM reduced CoQ or analog, blank without complex III): 0.2 nmol/min; % Inhibition by Antimycin A (complex III; antimycin A 1 μg/ml): 98%; P/NADH Ratio [2, 7]: 0.46; Δ G6P [2, 7]: 0.039; Δ NADH [2, 7]: 0.085; μmoles NADH /min/mg ([2]; CoQ or analog 0.12 nM (footnote 0.12 mM), 200 μg ETPH particles, no rotenone): 0.52 μmoles NADH /min/mg; μmoles NADH min/mg +Rotenone ([2]; CoQ or analog 0.12 nM (footnote 0.12 mM), rotenone 2 μM): 0 μmoles NADH min/mg; % Inhibition by Rotenone ([2]; rotenone 2 μM, CoQ or analog 0.12 nM (footnote 0.12 mM)): 100%
6 | 121 | 95 | 2.2 | 19.4 | 10.3 | – | – | COC1=C(OC)C(=O)C(C/C=C(\C)CCCC(C)CCCC(C)CCCC(C)C)=C(C)C1=O (stereo not shown) [H6 CoQ4, hexahydrocoenzyme Q4, reference compound] | – | – | showed hematological activity | – | treatment of periodontal disease (periodontal disease): enhanced treatment of periodontal disease

Source: patent publication US3974187A, “Synthetic analogs having the activity of naturally occurring forms of coenzyme Q” (priority 1975, dated 1976)
